The values below come from patent publication US11667602B2, “Compounds and their use” (AstraZeneca AB, priority 2020, dated 2023).

The nature of data set [1]: Human Liver Microsomal Stability (Test C). The data set is classed as in vitro ADME. To be noted: for microsomal CLint: human, liver microsomes. Summed up: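 Human liver microsome incubation per the Wernevik et al. integrated DMPK panel protocol. Intrinsic clearance reported as CLint in μl/min/mg protein, averaged arithmetically over repeat runs.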
Data set [2] can be described thus: Human Hepatocyte Stability (Test D). The data set is classed as in vitro ADME. To be noted: geometric mean if run multiple times; for hepatocyte CLint at 1 µM: human, cryopreserved pooled human hepatocytes (LiverPool 10-Donor). The protocol: Human Hepatocyte Stability (Test D)
The metabolic stability of compounds in human hepatocytes was assessed using the following protocol:
1. Prepare 10 mM stock solutions of compound and control compounds in appropriate solvent (DMSO). Place incubation medium (L-15 Medium) in a 37° C. water bath, and allow warming for at least 15 minutes prior to use.
2. Add 80 μL of acetonitrile to each well of the 96-well deep well plate (“Quenching plate”).
3. In a new 96-well plate, dilute the 10 mM test compounds and the control compounds to 100 μM by combining 198 μL of acetonitrile and 2 μL of 10 mM stock solution.
4. Remove a vial of cryopreserved (less than −150° C.) human hepatocytes (LiverPool™ 10-Donor Human hepatocytes obtained from Bioreclamation IVT (Product No. S01205)) from storage, ensuring that vials remain at cryogenic temperatures until thawing process ensues. As quickly as possible, thaw the cells by placing the vial in a 37° C. water bath and gently shaking the vials. Vials should remain in water bath until all ice crystals have dissolved and are no longer visible. After thawing is complete, spray vial with 70% ethanol, transfer the vial to a bio-safety cabinet.
5. Open the vial and pour the contents into the 50 mL conical tube containing thawing medium. Place the 50 mL conical tube into a centrifuge and spin at 100 g for 10 minutes (room temperature).
6. Using Cellometer® Vision, count cells and determine the viable cell density. Cells with poor viability (<80% viability) are not acceptable for use.
7. Transfer 247.5 μL of hepatocytes into each well of a 96-well cell incubation plate. Place the plate on Eppendorf Thermomixer Comfort plate shaker to allow the hepatocytes to warm for 10 minutes.
8. Add 2.5 μL of 100 μM test compound or control compounds into an incubation well containing cells to initiate the reaction.
9. Incubate the plate at 37° C. and 900 rpm on an Eppendorf Thermomixer Comfort plate shaker.
10. Centrifuge the quenching plates for 20 minutes at 4,000 rpm. Transfer 30 μL of supernatant of each compound into a 96-well analysis plate. 4 compounds are pooled together into one cassette. Then dilute the pooled sample by adding of 180 μl of pure water. All incubations are performed in singlicate.
All calculations were carried out using Microsoft Excel. Peak areas were determined from extracted ion chromatograms. In vitro intrinsic clearance (in vitro Clint, in μL/min/10^6 cells) of parent compound was determined by regression analysis of the Ln percent parent disappearance vs. time curve. The in vitro intrinsic clearance (in vitro Clint, in μL/min/10^6 cells) reported in Table 36, and was determined from the slope value using the following equation: in vitro Clint=kV/N
V=incubation volume (0.25 mL);
N=number of hepatocytes per well (0.25×10^6 cells)
Where the assay was run multiple times for the same compound, the geometric mean is reported.

Data set [3] is described as follows: Rat Hepatocyte Stability (Test E). To be noted: geometric mean if run multiple times; for hepatocyte CLint: rat, hepatocytes. In kind it is in vitro ADME. In a few lines:
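Run per the published AstraZeneca-type rat hepatocyte stability protocol (Wernevik et al. panel). Values are mean intrinsic clearance, Clint in μl/min/10^6 cells; geometric mean used for repeated runs.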

Another data set can be described thus: Solubility (Test F). In kind it is physicochemical. As to conditions: arithmetic mean if run multiple times. The method, then:
The assay was conducted according to the Solubility Assay described in pages 164-167 of Wernevik, J. et al., “A Fully Integrated Assay Panel for Early Drug Metabolism and Pharmacokinetics Profiling”, Assay and Drug Development Technologies, 2020, 18(4), 157-179. Data are reported in Table 36 as solubility ([…]. Where the assay was run multiple times for the same compound, the arithmetic mean is reported.

Another data set concerns the target T1, human RXFP1 (Homo sapiens, UniProt Q9HBX9).
T1 sequence (Q9HBX9 1-757): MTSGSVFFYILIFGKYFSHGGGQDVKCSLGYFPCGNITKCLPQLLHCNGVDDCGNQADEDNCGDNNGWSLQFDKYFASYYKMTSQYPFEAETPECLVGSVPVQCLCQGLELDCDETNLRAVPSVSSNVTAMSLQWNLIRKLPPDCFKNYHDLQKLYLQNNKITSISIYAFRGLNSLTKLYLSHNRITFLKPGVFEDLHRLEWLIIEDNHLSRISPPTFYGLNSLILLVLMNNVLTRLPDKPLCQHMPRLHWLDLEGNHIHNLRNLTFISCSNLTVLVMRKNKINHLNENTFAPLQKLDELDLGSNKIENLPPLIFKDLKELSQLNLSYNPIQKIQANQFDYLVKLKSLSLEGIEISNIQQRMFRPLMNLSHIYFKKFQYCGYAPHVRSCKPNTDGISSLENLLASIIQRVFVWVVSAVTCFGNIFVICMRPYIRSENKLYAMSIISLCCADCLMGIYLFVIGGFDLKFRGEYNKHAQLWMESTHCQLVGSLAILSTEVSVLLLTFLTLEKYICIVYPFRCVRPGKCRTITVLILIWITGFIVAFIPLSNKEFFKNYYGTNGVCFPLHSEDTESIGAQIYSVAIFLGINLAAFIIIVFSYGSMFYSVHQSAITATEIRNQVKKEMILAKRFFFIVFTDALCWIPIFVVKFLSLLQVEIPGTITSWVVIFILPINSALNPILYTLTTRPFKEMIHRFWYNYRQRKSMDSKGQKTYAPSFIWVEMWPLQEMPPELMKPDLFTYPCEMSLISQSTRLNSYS
The experiment in a line: RXFP1 Hu cAMP (Test A). The data set is classed as cell-based. To be noted: RXFP1 Hu cAMP; for EC50: read-out: Test A EC50. Also noted: expressed in transfected cells; host or cells: Jump-In T-REx CHO-K1 cells (ThermoFisher), induced with 10 ng/ml doxycycline for 24 h. Summed up:
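Read-out is HTRF signal, inversely proportional to cAMP, converted to cAMP amount by standard curve. Stimulation occurred in inducible CHO-K1 cells expressing the human receptor with phosphodiesterases blocked by 0.5 mM IBMX.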

SMILES strings stand for the structures. Converted amounts (≈) assume the structure as drawn.

Consider `CCC(C)CNC(=O)C1C2CCC(C2)C1NC(=O)c1cc(OC2CCC(C(=O)O)CC2)c(F)cc1OC` (single isomer, unassigned) [Example 203, (1S,4s)-4-(2-Fluoro-4-methoxy-5-(((1S,2R,3S,4R)-3-(((R*)-2-methylbutyl)carbamoyl)bicyclo[2.2.1]heptan-2-yl)carbamoyl)phenoxy)cyclohexane-1-carboxylic acid], for which, in data set [1] (human liver microsomes), the “Test C Human Liver Microsomal Stability Clint” value was 19 µL/min/mg. Further, the “Test D Human Hepatocyte Stability Clint” value in data set [2] (human hepatocytes) was determined as 5 μL/min/10^6 cells. For the same compound, the “Test E Rat Hepatocyte Stability Clint” value in data set [3] (rat hepatocytes) turned out to be 34 μL/min/10^6 cells. Besides, the solubility in the data set “Solubility (Test F)” worked out at 1000 µM (≈ 519 µg/mL). Also, at human RXFP1, the “Test A Sinf” value was 118%.
As for `COc1cc(F)c(O[C@H]2CC[C@@](C)(C(=O)O)CC2)cc1C(=O)NC1C(C(=O)Nc2cccc(S(=O)(=O)C(F)(F)F)c2)CC2OCOC21` (single isomer, unassigned) [Example 512, (1R,4s)-4-(2-Fluoro-4-methoxy-5-(((3aR*,4S*,5S*,6aS*)-5-((3-((trifluoromethyl)sulfonyl)phenyl)carbamoyl)tetrahydro-4H-cyclopenta[d][1,3]dioxol-4-yl)carbamoyl)phenoxy)-1-methylcyclohexane-1-carboxylic acid], the microsomal CLint in data set [1] worked out at 12 µL/min/mg. In data set [2], this compound yielded a hepatocyte CLint at 1 µM of 4.2 µL/min/1e6 cells. This compound yielded a hepatocyte CLint in data set [3] of 25 µL/min/1e6 cells. The same compound gave a solubility in the data set “Solubility (Test F)” of 880 µM (≈ 606 µg/mL). The “Test A Sinf” value on human RXFP1 turned out to be 104%.
In data set [1], `COc1cc(F)c(O[C@H]2CC[C@@](C)(C(=O)O)CC2)cc1C(=O)N[C@@H]1CCC[C@@H]1C(=O)N[C@H](C)C(C)(C)C` [Example 65, (1S,4s)-4-(5-(((1R,2S)-2-(((R)-3,3-Dimethylbutan-2-yl)carbamoyl)cyclopentyl)carbamoyl)-2-fluoro-4-methoxyphenoxy)-1-methylcyclohexane-1-carboxylic acid] showed a microsomal CLint of 5.5 µL/min/mg. Also, the hepatocyte CLint at 1 µM in data set [2] was found to be 3.1 µL/min/1e6 cells. This compound gave a hepatocyte CLint in data set [3] of 9.7 µL/min/1e6 cells. For the same compound, the solubility in “Solubility (Test F)” was more than 1000 µM. At human RXFP1, the “Test A Sinf” value was determined as 99% and the EC50 turned out to be 160 nM.
Compound `COc1cc(F)c(O[C@H]2CC[C@@](C)(C(=O)O)CC2)cc1C(=O)N[C@@H]1CCC[C@@H]1C(=O)NCC1(C)CCC1` [Example 67] yielded a microsomal CLint in data set [1] of less than 3 µL/min/mg. The compound also returned a hepatocyte CLint at 1 µM in data set [2] of 2.6 µL/min/1e6 cells. The compound further yielded a hepatocyte CLint in data set [3] of 18 µL/min/1e6 cells. Also, in the data set “Solubility (Test F)”, the solubility is more than 1000 µM. On human RXFP1, the “Test A Sinf” value came to 105% and the EC50 is 270 nM.
For `CCC(CC)CNC(=O)[C@H]1[C@@H]2CC[C@@H](C2)[C@H]1NC(=O)c1cc(O[C@H]2CC[C@@H](C(=O)O)CC2)c(F)cc1OC` [Example 197, (1S,4s)-4-(5-(((1S,2R,3S,4R)-3-((2-ethylbutyl)carbamoyl)bicyclo[2.2.1]heptan-2-yl)carbamoyl)-2-fluoro-4-methoxyphenoxy)cyclohexane-1-carboxylic acid], the microsomal CLint in data set [1] turned out to be 45 µL/min/mg. In addition, the hepatocyte CLint at 1 µM in data set [2] came to 12 µL/min/1e6 cells. The compound also registered a hepatocyte CLint in data set [3] of 28 µL/min/1e6 cells. The compound also had a solubility in the data set “Solubility (Test F)” of 1000 µM (≈ 533 µg/mL). Moreover, at human RXFP1, the “Test A Sinf” value is on record as 106% and the EC50 stood at 1400 nM.
The compound `COc1cc(F)c(O[C@H]2CC[C@@H](C(=O)O)CC2)cc1C(=O)N[C@@H]1[C@H]2CC[C@H](C2)[C@@H]1C(=O)NCC1(C)CC1` [Example 198] gave a microsomal CLint in data set [1] of 12 µL/min/mg. The hepatocyte CLint at 1 µM in data set [2] was 6.6 µL/min/1e6 cells. The compound further showed a hepatocyte CLint in data set [3] of 77 µL/min/1e6 cells. For the same compound, in the data set “Solubility (Test F)”, the concentration in solution (solubility) came to 920 µM (≈ 475 µg/mL). In addition, at human RXFP1, the “Test A Sinf” value is on record as 99% and the EC50 is 1200 nM.
Take `COc1cc(F)c(O[C@H]2CC[C@@H](C(=O)O)CC2)cc1C(=O)N[C@@H]1[C@H]2CC[C@H](C2)[C@@H]1C(=O)N[C@@H](C)C(C)(C)C` [Example 199]: the microsomal CLint in data set [1] was determined as 26 µL/min/mg. Moreover, the hepatocyte CLint at 1 µM in data set [2] is 2.6 µL/min/1e6 cells. Besides, in data set [3], the hepatocyte CLint is 20 µL/min/1e6 cells. The compound further returned a solubility in “Solubility (Test F)” of 1000 µM (≈ 533 µg/mL). In addition, at human RXFP1, the “Test A Sinf” value is 100% and the EC50 stood at 21000 nM.
`COc1cc(F)c(O[C@H]2CC[C@@H](C(=O)O)CC2)cc1C(=O)N[C@@H]1[C@H]2CC[C@H](C2)[C@@H]1C(=O)N[C@H](C)C(C)(C)C` [Example 200] yielded a microsomal CLint in data set [1] of 32 µL/min/mg. Also, the hepatocyte CLint at 1 µM in data set [2] is 3.7 µL/min/1e6 cells. For the same compound, the hepatocyte CLint in data set [3] is 15 µL/min/1e6 cells. The same compound had a solubility in the data set “Solubility (Test F)” of 55 µM (≈ 29.3 µg/mL). For the same compound, on human RXFP1, the “Test A Sinf” value was 100% and the EC50 is 590 nM.
Take `COc1cc(F)c(O[C@H]2CC[C@@](C)(C(=O)O)CC2)cc1C(=O)N[C@H]1[C@@H]2CC[C@@H](C2)[C@H]1C(=O)Nc1ccc(F)c(S(F)(F)(F)(F)F)c1` [Example 206, (1R,4s)-4-(2-Fluoro-5-(((1R,2S,3R,4S)-3-((4-fluoro-3-(pentafluoro-λ6-sulfaneyl)phenyl)carbamoyl)bicyclo[2.2.1]heptan-2-yl)carbamoyl)-4-methoxyphenoxy)-1-methylcyclohexane-1-carboxylic acid]: in data set [1], the microsomal CLint is 42 µL/min/mg. Moreover, in data set [2], the hepatocyte CLint at 1 µM worked out at 49 µL/min/1e6 cells. The hepatocyte CLint in data set [3] was determined as 14 µL/min/1e6 cells. The compound also showed a solubility in the data set “Solubility (Test F)” of 35 µM (≈ 23.9 µg/mL). Also, on human RXFP1, the “Test A Sinf” value is 99% and the EC50 was more than 150 nM.
Regarding `COc1cc(F)c(-c2cnc(CCC(=O)O)cn2)cc1C(=O)N[C@@H]1[C@H]2CC[C@H](C2)[C@@H]1C(=O)Nc1cccc(S(=O)(=O)C(F)(F)F)c1` [Example 238], the microsomal CLint in data set [1] worked out at 42 µL/min/mg. In data set [2], this compound gave a hepatocyte CLint at 1 µM of 13 µL/min/1e6 cells. In addition, the intrinsic clearance (hepatocyte CLint) in data set [3] amounted to 27 µL/min/1e6 cells. In the data set “Solubility (Test F)”, the solubility was determined as 890 µM (≈ 592 µg/mL). Moreover, at human RXFP1, the “Test A Sinf” value is 102% and the EC50 came out at 140 nM.
On to `COc1cc(F)c(-c2ccc(CCC(=O)O)cn2)cc1C(=O)N[C@@H]1[C@H]2CC[C@H](C2)[C@@H]1C(=O)Nc1cccc(S(=O)(=O)C(F)(F)F)c1` [Example 242], for which the microsomal CLint in data set [1] stood at 110 µL/min/mg. In data set [2], this compound returned a hepatocyte CLint at 1 µM of 26 µL/min/1e6 cells. The compound also came in with a hepatocyte CLint in data set [3] of 30 µL/min/1e6 cells. This compound also came in with a solubility in the data set “Solubility (Test F)” of 900 µM (≈ 597 µg/mL). On human RXFP1, the “Test A Sinf” value is 109% and the EC50 turned out to be 200 nM.
